In patent US20240116946A1 (Gilead Sciences, Inc., priority 2022, published 2024):
Where two headings read alike, the source gives them in different places.

What was measured:
[1] = target: recombinant SARS-CoV-2 Main protease (Mpro) (Severe acute respiratory syndrome coronavirus 2 (2019-nCoV) (SARS-CoV-2), UniProt P0DTD1); assay: Cov Mpro Biochemical IC50 Assay; details: read-out: MPro IC50
SARS-CoV-2-NLuc = assay: microbe, parasite or virus in culture; type: cell-based, SARS Coronavirus 2
[2] = recombinant SARS-CoV-2 Mpro 7.5 nM, fluorogenic peptide substrate 40 μM
[3] = Severe acute respiratory syndrome coronavirus, 48 h, read-out: MPro EC50
[4] = recombinant SARS-CoV-2 Mpro, fluorogenic peptide substrate
[5] = Severe acute respiratory syndrome coronavirus, 48 h; read-out: MPro EC50

Compound	IC50 [1, 2]	EC50 (SARS-CoV-2-NLuc; read-out: MPro EC50)	EC50 (SARS-CoV-2-NLuc; [3])	IC50 [1, 4]	EC50 (SARS-CoV-2-NLuc; [5])
COc1ccc2cncc(-n3c(=O)[nH]c4cc(-c5ccccc5Cl)sc4c3=O)c2c1 (single isomer, unassigned) [Example 441, 6-(2-chlorophenyl)-3-(6-methoxyisoquinolin-4-yl)thieno[3,2-d]pyrimidine-2,4(1H,3H)-dione]	109 nM	239 nM			
COc1cc(-c2cc3c(s2)c(=O)n(-c2cncc4cnn(C)c24)c(=O)n3CCN(C)C)c(Cl)cc1F [Example 1068]	74.2 nM		219 nM		
COc1ccc2cncc(-n3c(=O)[nH]c4cc(-c5ccccc5Cl)ccc4c3=O)c2c1 [Example 237]			143 nM	87 nM	
O=c1[nH]c2cc(-c3ccccc3C3CC3)sc2c(=O)n1-c1cncc2ccccc12 [Example 16]			182 nM	164 nM	
O=c1[nH]c2cc(-c3ccccc3Cl)sc2c(=O)n1-c1cncc2c1OCCC2 [Example 588]	14.8 nM		47.4 nM		
O=c1[nH]c2cc(-c3csc4ccccc34)ccc2c(=O)n1-c1cncc2ccccc12 [Example 50]			9060 nM	7920 nM	
CC(C)(O)c1cncc(-c2cccc(Cl)c2-c2ccc3c(=O)n(-c4cncc5ccccc45)c(=O)[nH]c3c2)c1 [Example 209]			23.6 nM	10.4 nM	
Cc1nccnc1COc1cccc(Cl)c1-c1ccc2c(=O)n(-c3cncc4ccccc34)c(=O)[nH]c2c1 [Example 94]			269 nM	210 nM	
COc1ccc(C#N)c(-c2cc3[nH]c(=O)n(-c4cncc5cnn(CC(F)(F)F)c45)c(=O)c3s2)c1 [Example 508]	21.2 nM		205 nM		
Cn1nnc2cncc(-n3c(=O)c4sc(-c5ccc(F)cc5Cl)cc4n(CCC#N)c3=O)c21 [Example 773, 3-[6-(2-chloro-4-fluoro-phenyl)-3-(1-methyltriazolo[4,5-c]pyridin-7-yl)-2,4-dioxo-thieno[3,2-d]pyrimidin-1-yl]propanenitrile]	25.5 nM		67.5 nM		
Cc1ccccc1-c1ccc2c(=O)n(-c3cncc4ccccc34)c(=O)[nH]c2c1 [Example 36]			619 nM	388 nM	
COc1ccc(C#N)c(-c2cc3[nH]c(=O)n(-c4cncc5ccccc45)c(=O)c3s2)c1 (single isomer, unassigned) [Example 555, 2-(3-(isoquinolin-4-yl)-2,4-dioxo-1,2,3,4-tetrahydrothieno[3,2-d]pyrimidin-6-yl)-4-methoxybenzonitrile]	21.5 nM	79.6 nM			
COc1cccc(F)c1-c1ccc2c(=O)n(-c3cncc4ccccc34)c(=O)[nH]c2c1 [Example 61]			648 nM	914 nM	
COc1cnc(Cl)c(-c2cc3c(s2)c(=O)n(-c2cncc4cnn(C)c24)c(=O)n3CCC#N)c1 (single isomer, unassigned) [Example 1090, 3-(6-(2-chloro-5-methoxypyridin-3-yl)-3-(1-methyl-1H-pyrazolo[4,3-c]pyridin-7-yl)-2,4-dioxo-3,4-dihydrothieno[3,2-d]pyrimidin-1(2H)-yl)propanenitrile]	1.5 nM	5.22 nM			
O=c1[nH]c2cc(-c3ccccc3Cl)sc2c(=O)n1-c1cncc2cc(Cl)ccc12 [Example 590]	194 nM		299 nM		
Cn1ncc2cncc(-n3c(=O)c4sc(-c5cc(F)c(F)cc5C#N)cc4n(CCC#N)c3=O)c21 [Example 794]	31.5 nM		> 1000 nM		
COc1cc(-c2cc3c(s2)c(=O)n(-c2cncc4ccccc24)c(=O)n3CCC#N)c(C#N)cc1F [Example 1001, 2-(1-(2-cyanoethyl)-3-(isoquinolin-4-yl)-2,4-dioxo-1,2,3,4-tetrahydrothieno[3,2-d]pyrimidin-6-yl)-5-fluoro-4-methoxybenzonitrile]	5.04 nM		3.11 nM		
COc1ccc(Cl)c(-c2cc3[nH]c(=O)n(-c4cncc5ccc(C(F)F)cc45)c(=O)c3s2)c1 [Example 227]			25 nM	11.3 nM	
COc1cc(-c2cc3c(s2)c(=O)n(-c2cncc(Cl)c2C)c(=O)n3CCC#N)c(Cl)cc1F [Example 927, 3-[6-(2-chloro-4-fluoro-5-methoxy-phenyl)-3-(5-chloro-4-methyl-3-pyridyl)-2,4-dioxo-thieno[3,2-d]pyrimidin-1-yl]propanenitrile]	7.02 nM		6.88 nM		
Cn1ncc2cncc(-n3c(=O)c4sc(-c5ccccc5C#N)cc4n(CCC#N)c3=O)c21 (single isomer, unassigned) [Example 962, 2-(1-(2-cyanoethyl)-3-(1-methyl-1H-pyrazolo[4,3-c]pyridin-7-yl)-2,4-dioxo-1,2,3,4-tetrahydrothieno[3,2-d]pyrimidin-6-yl)benzonitrile]	> 1000 nM	> 1000 nM			
O=c1[nH]c2cc(-c3c(Cl)cccc3-c3ccnnc3)sc2c(=O)n1-c1cncc2ccccc12 [Example 112]			39.2 nM	5.19 nM	
COc1cnc(Cl)c(-c2cc3[nH]c(=O)n(-c4cncc5ccccc45)c(=O)c3s2)c1 (single isomer, unassigned) [Example 629, 6-(2-chloro-5-methoxypyridin-3-yl)-3-(isoquinolin-4-yl)thieno[3,2-d]pyrimidine-2,4(1H,3H)-dione]	42.4 nM	290 nM			

Compound	IC50 [1, 2]	EC50 (SARS-CoV-2-NLuc; read-out: MPro EC50)	EC50 (SARS-CoV-2-NLuc; [3])	IC50 [1, 4]	EC50 (SARS-CoV-2-NLuc; [5])
COc1cc(-c2cc3c(s2)c(=O)n(-c2cncc(Cl)c2C)c(=O)n3CCC#N)c(Cl)cc1F (single isomer, unassigned) [Example 1032, 3-[6-(2-chloro-4-fluoro-5-methoxy-phenyl)-3-(5-chloro-4-methyl-3-pyridyl)-2,4-dioxo-thieno[3,2-d]pyrimidin-1-yl]propanenitrile]	1.99 nM	2.02 nM			
CS(=O)(=O)N1CC2(CN(c3ccc4cncc(-n5c(=O)[nH]c6cc(-c7ccccc7Cl)sc6c5=O)c4c3)C2)C1 [Example 424]	11.3 nM		55.8 nM		
O=C(C1CC1)N1CCN(c2ccc3cncc(-n4c(=O)[nH]c5cc(-c6ccccc6Cl)sc5c4=O)c3c2)CC1 [Example 423]	6.5 nM		53.7 nM		
Cn1ncc(-c2cccc(Cl)c2-c2ccc3c(=O)n(-c4cncc5ccccc45)c(=O)[nH]c3c2)c1C(F)F [Example 311]			25 nM	45.3 nM	
O=c1[nH]c2cc(-c3c(Cl)cccc3CO)sc2c(=O)n1-c1cncc2ccccc12 [Example 235]				53.5 nM	289 nM
CNC(=O)CCn1c(=O)n(-c2cncc(C3CC3)c2)c(=O)c2sc(-c3ccccc3Cl)cc21 [Example 619, 3-(6-(2-chlorophenyl)-3-(5-cyclopropylpyridin-3-yl)-2,4-dioxo-3,4-dihydrothieno[3,2-d]pyrimidin-1(2H)-yl)-N-methylpropanamide]	245 nM				451 nM
COc1cnc(C#N)c(-c2cc3[nH]c(=O)n(-c4cncc5ccccc45)c(=O)c3s2)c1 [Example 541]	17.6 nM		237 nM		
COc1ccc2cncc(-n3c(=O)[nH]c4cc(-c5c(Cl)cccc5-c5cc(C)c6ncnn6c5)sc4c3=O)c2c1 [Example 562, 6-[2-chloro-6-(8-methyl-[1,2,4]triazolo[1,5-a]pyridin-6-yl)phenyl]-3-(6-methoxy-4-isoquinolyl)-1H-thieno[3,2-d]pyrimidine-2,4-dione]	< 2.54 nM		5.06 nM		
COc1cc(-c2cc3[nH]c(=O)n(-c4cncc5cnn(C)c45)c(=O)c3s2)c(C#N)cc1F [Example 751, 5-fluoro-4-methoxy-2-[3-(1-methylpyrazolo[4,3-c]pyridin-7-yl)-2,4-dioxo-1H-thieno[3,2-d]pyrimidin-6-yl]benzonitrile]	11.1 nM		216 nM		
CC(=O)N1CC2(C1)CN(c1ccc3cncc(-n4c(=O)[nH]c5cc(-c6ccccc6Cl)sc5c4=O)c3c1)C2 [Example 422]	7.75 nM				134 nM
Cn1ncc(-c2cccc(Cl)c2-c2cc3[nH]c(=O)n(-c4cncc5ccccc45)c(=O)c3s2)c1C(F)(F)F [Example 526]	15.7 nM		8.34 nM		
CCn1ncc2cncc(-n3c(=O)[nH]c4cc(-c5cc(OC)c(F)cc5Cl)sc4c3=O)c21 [Example 732]	15.1 nM		15.7 nM		
Cn1nnc2cncc(-n3c(=O)c4sc(-c5ccc(F)cc5Cl)cc4n(CCC#N)c3=O)c21 (single isomer, unassigned) [Example 1028, 3-[6-(2-chloro-4-fluoro-phenyl)-3-(1-methyltriazolo[4,5-c]pyridin-7-yl)-2,4-dioxo-thieno[3,2-d]pyrimidin-1-yl]propanenitrile]	17.9 nM	51 nM			
COc1cc(-c2cc3[nH]c(=O)n(-c4cncc5c4CCCC5)c(=O)c3s2)c(Cl)cc1F [Example 729]	6.1 nM				7.78 nM
COc1cc(-c2cc3c(s2)c(=O)n(-c2cncc4[nH]c(=O)n(C)c24)c(=O)n3CCC#N)c(Cl)cc1F [Example 687]	4.92 nM		148 nM		
COc1cc(-c2cc3[nH]c(=O)n(-c4cncc5nn(C)cc45)c(=O)c3s2)c(Cl)cc1F [Example 731]	5.04 nM		65.6 nM		
O=c1[nH]c2cc(-c3c(Cl)cccc3-c3ccc4c(c3)OC(F)(F)O4)ccc2c(=O)n1-c1cncc2ccccc12 [Example 357]			68.1 nM	373 nM	
COc1cc(-c2cc3c(s2)c(=O)n(-c2cncc(Cl)c2)c(=O)n3CCC#N)c(Cl)cc1F [Example 985]	2.11 nM		6.7 nM		
Cn1ncc2cncc(-n3c(=O)c4sc(-c5cc(C(F)(F)F)ccc5C#N)cc4n(CCC#N)c3=O)c21 [Example 822]	96.4 nM				346 nM
O=c1[nH]c2cc(-c3ccccc3Cl)sc2c(=O)n1-c1cncc2ccc(N3CCN(C4COC4)CC3)cc12 [Example 392]			6.75 nM	< 2.54 nM	
COc1cc(-c2cc3c(s2)c(=O)n(-c2cncc4cnc(C)n24)c(=O)n3CCC#N)c(Cl)cc1F [Example 980]	7.64 nM		10.4 nM		
